Like-named read-outs stand apart in the source and are kept apart here.
Columns and labels:
Assay type in all cases: in vivo
liver = experiment: Hepatic tolerability, 15 days at high dose: hepatic index; settings: rat, oral, 15 days, 300 mg/kg/day; absolute values; solvent 5,4
Experimental: (§1) The hypolipemizing activity of the compounds of the present invention has been evaluated in the rat using SD male animals (Charles River) of an initial weight of 150 g, housed in controlled environment at a temperature of 21°±1° C., relative humidity 60% and a 12 hours light/dark cycle. The animals were fasted with this diet for 15 days consecutively, during which they received the pharmacological treatment once a day by oral route and were sacrificed 24 hours after the last administration. At the sacrifice time the blood was removed for the lipid determination and the liver was removed as well to be weighed and used for the evaluation of the catalase enzyme as the index of the peroxysomes proliferation and thus of hepatotoxicity. In order to evaluate the hepatic tolerability of the compounds of interest they have been administered for 15 days at a high dose (300 mg/kg/day) according to the same conditions of the previous experiment.24 hours after the last treatment the animals have been sacrificed, and the liver has been removed and stored at -20° C. up to the time of dosing the activity of the catalase enzyme (Methods of enzymatic analysis, vol.2, pag. 673, 1974 edit. H. U. Bergmeyer, Verlag Chemie International).

catalase enzyme = experiment: Hepatic tolerability, 15 days at high dose: catalase enzyme activity in liver (index of peroxysomes proliferation); settings: rat liver, oral, 15 days, 300 mg/kg/day; absolute values; solvent 539,8
Experimental: as §1

[1] = tested on: hyperlipaemic SD male rats; experiment: Hypolipemizing activity, 5 days experimental model, modified Nath diet; settings: rat, oral; for change in vivo at 100 mg/kg/day / change in vivo at 300 mg/kg/day: 120 h; for Hepatic index (percent variation vs hyperlipaemic controls): index = (Liver weight/body weight) × 100
Procedure, shortened: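 SD male rats (150 g) made hyperlipaemic on ad libitum modified Nath diet for 5 days, dosed orally once daily at 100 and 300 mg/kg/day in 0.5% carboxymethylcellulose, sacrificed 2 h after last dose. Serum triglycerides, total and HDL cholesterol by enzymatic kit, VLDL+LDL by difference, liver weighed; expressed as % change versus vehicle controls.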

[2] = tested on: hyperlipaemic SD male rats; experiment: Hypolipemizing activity, 15 days experimental model, modified diet; settings: rat, oral; for Cholesterol VLDL + LDL (percent variation vs hyperlipaemic controls): by difference between total and HDL; for Hepatic index (percent variation vs hyperlipaemic controls): index = (Liver weight/body weight) × 100
Experimental: The hypolipemizing activity of the compounds of the present invention has been evaluated in the rat using SD male animals (Charles River) of an initial weight of 150 g, housed in controlled environment at a temperature of 21°±1° C., relative humidity 60% and a 12 hours light/dark cycle.
Experimental models have been used in which the animals are rendered hiperlipaemic by "ad libitum" food administration with a modified Nath diet (Atherosclerosis 30, 1978, pag. 45-46) having the following composition:
In the second model a diet was used which was modified with respect to the former one by the following parameters: […]
The animals were fasted with this diet for 15 days consecutively, during which they received the pharmacological treatment once a day by oral route and were sacrificed 24 hours after the last administration. At the sacrifice time the blood was removed for the lipid determination and the liver was removed as well to be weighed and used for the evaluation of the catalase enzyme as the index of the peroxysomes proliferation and thus of hepatotoxicity.
This experimental model has been used only for the molecules which in the first model were found more promising, and has permitted to get values of the serum lipids from 2 to 3 times higher than the normal values both for the total cholesterol and for the triglycerides.
This experimental model was used to:
a) evaluate the effectiveness on a less marked hyperlipoproteinaemy, and
b) assess mainly at the hepatic level the tolerability of the compounds during a more extended treatment.
The determination of the triglycerides, of the total cholesterol and of the cholesterol associated to the HDL has been effected by means of a commercial enzymatic kit. The concentration of the cholesterol associated to VLDL+LDL has been determined by difference between total cholesterol and HDL.
On the basis of the indications provided by this screening the most interesting compounds have been evaluated by the 15 days experimental model which permits both the evaluation of the effectiveness in the case of a hyperlipaemia less marked and more constant, and the tolerability control of the compounds during a longer term treatment.
In this case too the results (reported in the following table 2) are expressed as the percent variation with respect to the hyperlipaemic controls to which carboxymethylcellulose as 0.5% in water was administered by oral route at the dose of 10 ml/kg/day. The same vehicle was used for the suspension of the compounds being tested, administered at the doses; of 50 and 100 mg/kg/day by oral route.

[3] = 100 mg/kg/day, by difference between total and HDL, read-out: Cholesterol VLDL + LDL (percent variation vs hyperlipaemic controls)
[4] = 100 mg/kg/day, read-out: Cholesterol HDL (percent variation vs hyperlipaemic controls)
[5] = 100 mg/kg/day, read-out: Total Cholesterol (percent variation vs hyperlipaemic controls)
[6] = 100 mg/kg/day, read-out: Triglycerides (percent variation vs hyperlipaemic controls)
[7] = 300 mg/kg/day, by difference between total and HDL, read-out: Cholesterol VLDL + LDL (percent variation vs hyperlipaemic controls)
[8] = 300 mg/kg/day, read-out: Cholesterol HDL (percent variation vs hyperlipaemic controls)
[9] = 300 mg/kg/day, read-out: Total Cholesterol (percent variation vs hyperlipaemic controls)
[10] = 300 mg/kg/day, read-out: Triglycerides (percent variation vs hyperlipaemic controls)

In the case of `CC(C)COC(=O)c1ccc(OCC(CSc2nc3c(N)ncnc3n2[C@@H]2O[C@H](CO)[C@@H](O)[C@H]2O)=NNC(N)=O)cc1` [Example 33], the “Hepatic index (Liver weight/body weight) × 100” value (liver) is reported as 5,3, the Catalase enzyme activity (catalase enzyme) is reported as 378,5 umoli/min/mg proteins and the change in vivo at 100 mg/kg/day [1, 3] is reported as -37.4%. For the same compound, the change in vivo at 100 mg/kg/day [1, 4] was 22.2%, the change in vivo at 100 mg/kg/day [1, 5] was -34.8% and the change in vivo at 100 mg/kg/day [1, 6] was -27.8%. The change in vivo at 300 mg/kg/day [1, 7] was -46.9%, the change in vivo at 300 mg/kg/day [1, 8] was 16.6% and the change in vivo at 300 mg/kg/day [1, 9] was -44.1%. The change in vivo at 300 mg/kg/day [1, 10] was -43%, the “Hepatic index (percent variation vs hyperlipaemic controls)” value ([1]; 100 mg/kg/day) was -1,6% and the “Hepatic index (percent variation vs hyperlipaemic controls)” value ([1]; 300 mg/kg/day) was -2,5%. For the same compound, the “Cholesterol HDL (percent variation vs hyperlipaemic controls)” value ([2]; 50 mg/kg/day) was “+15,6%”, the “Total Cholesterol (percent variation vs hyperlipaemic controls)” value ([2]; 50 mg/kg/day) was -29,7% and the “Triglycerides (percent variation vs hyperlipaemic controls)” value ([2]; 50 mg/kg/day) was -20,5%. The “Cholesterol VLDL + LDL (percent variation vs hyperlipaemic controls)” value ([2]; 50 mg/kg/day) was -34,7%, the “Hepatic index (percent variation vs hyperlipaemic controls)” value ([2]; 50 mg/kg/day) was “+2,2%” and the “Cholesterol HDL (percent variation vs hyperlipaemic controls)” value ([2]; 100 mg/kg/day) was “+19,4%”. For the same compound, the “Total Cholesterol (percent variation vs hyperlipaemic controls)” value ([2]; 100 mg/kg/day) was -33,8%, the “Triglycerides (percent variation vs hyperlipaemic controls)” value ([2]; 100 mg/kg/day) was -30,6% and the “Cholesterol VLDL + LDL (percent variation vs hyperlipaemic controls)” value ([2]; 100 mg/kg/day) was -39,7%. The “Hepatic index (percent variation vs hyperlipaemic controls)” value ([2]; 100 mg/kg/day) was “+3,9%”.

`CC(C)COC(=O)c1ccc(OCC(=O)CSc2nc3c(N)ncnc3n2[C@@H]2O[C@H](CO)[C@@H](O)[C@H]2O)cc1` [Example 28] was tested, and the “Hepatic index (Liver weight/body weight) × 100” value (liver) was 5,6, the Catalase enzyme activity (catalase enzyme) was 479,7 umoli/min/mg proteins and the change in vivo at 100 mg/kg/day [1, 3] was -15.1%. The change in vivo at 100 mg/kg/day [1, 4] was 5.7%, the change in vivo at 100 mg/kg/day [1, 5] was -14% and the change in vivo at 100 mg/kg/day [1, 6] was -16.3%. For the same compound, the change in vivo at 300 mg/kg/day [1, 7] was -33.7%, the change in vivo at 300 mg/kg/day [1, 8] was 22.7% and the change in vivo at 300 mg/kg/day [1, 9] was -31.3%. The change in vivo at 300 mg/kg/day [1, 10] was -22.5%, the “Hepatic index (percent variation vs hyperlipaemic controls)” value ([1]; 300 mg/kg/day) was -5,5% and the “Cholesterol HDL (percent variation vs hyperlipaemic controls)” value ([2]; 50 mg/kg/day) was “+11,3%”. The “Total Cholesterol (percent variation vs hyperlipaemic controls)” value ([2]; 50 mg/kg/day) was -23,3%, the “Triglycerides (percent variation vs hyperlipaemic controls)” value ([2]; 50 mg/kg/day) was -27,3% and the “Cholesterol VLDL + LDL (percent variation vs hyperlipaemic controls)” value ([2]; 50 mg/kg/day) was -28,1%. The “Hepatic index (percent variation vs hyperlipaemic controls)” value ([2]; 50 mg/kg/day) was “+0,6%”, the “Cholesterol HDL (percent variation vs hyperlipaemic controls)” value ([2]; 100 mg/kg/day) was “+21,0%” and the “Total Cholesterol (percent variation vs hyperlipaemic controls)” value ([2]; 100 mg/kg/day) was -35,3%. For the same compound, the “Triglycerides (percent variation vs hyperlipaemic controls)” value ([2]; 100 mg/kg/day) was -35,1%, the “Cholesterol VLDL + LDL (percent variation vs hyperlipaemic controls)” value ([2]; 100 mg/kg/day) was -41,7% and the “Hepatic index (percent variation vs hyperlipaemic controls)” value ([2]; 100 mg/kg/day) was -1,9%.

For `CC(C)COC(=O)c1ccc(OCC(=O)CSc2nc3ccccc3s2)cc1` [Example 2, 2-[3-[(p-isobutyloxycarbonyl)phenoxy]-2-oxo-propylthio]-benzothiazole], the “Hepatic index (Liver weight/body weight) × 100” value (liver) was 6,0, the Catalase enzyme activity (catalase enzyme) was 603,0 umoli/min/mg proteins and the change in vivo at 100 mg/kg/day [1, 3] was -14.7%. It also gave a change in vivo at 100 mg/kg/day [1, 4] of 10.4%, a change in vivo at 100 mg/kg/day [1, 5] of -13.2% and a change in vivo at 100 mg/kg/day [1, 6] of -22.1%. The change in vivo at 300 mg/kg/day [1, 7] was -21.8%, the change in vivo at 300 mg/kg/day [1, 8] was 13.9% and the change in vivo at 300 mg/kg/day [1, 9] was -19.5%. For the same compound, the change in vivo at 300 mg/kg/day [1, 10] was -32.5%, the “Hepatic index (percent variation vs hyperlipaemic controls)” value ([1]; 100 mg/kg/day) was -6,5% and the “Hepatic index (percent variation vs hyperlipaemic controls)” value ([1]; 300 mg/kg/day) was -1,6%. The “Cholesterol HDL (percent variation vs hyperlipaemic controls)” value ([2]; 50 mg/kg/day) was -24,5%, the “Total Cholesterol (percent variation vs hyperlipaemic controls)” value ([2]; 50 mg/kg/day) was -13,1% and the “Triglycerides (percent variation vs hyperlipaemic controls)” value ([2]; 50 mg/kg/day) was -0,2%. For the same compound, the “Cholesterol VLDL + LDL (percent variation vs hyperlipaemic controls)” value ([2]; 50 mg/kg/day) was -12,0%, the “Hepatic index (percent variation vs hyperlipaemic controls)” value ([2]; 50 mg/kg/day) was “+3,5%” and the “Cholesterol HDL (percent variation vs hyperlipaemic controls)” value ([2]; 100 mg/kg/day) was -0,4%. For the same compound, the “Total Cholesterol (percent variation vs hyperlipaemic controls)” value ([2]; 100 mg/kg/day) was -12,9%, the “Triglycerides (percent variation vs hyperlipaemic controls)” value ([2]; 100 mg/kg/day) was -18,7% and the “Cholesterol VLDL + LDL (percent variation vs hyperlipaemic controls)” value ([2]; 100 mg/kg/day) was -14,0%. For the same compound, the “Hepatic index (percent variation vs hyperlipaemic controls)” value ([2]; 100 mg/kg/day) was -4,5%.

— patent US5470858A, “Derivatives of (hetero)aromatic ethers and thioethers having antihyperlipidemic activity, process for their preparation and pharmaceutical compositions containing them” (Pierrel SpA, priority 1991, dated 1995)
